According to patent US20110105457A1, “HETEROCYCLIC COMPOUND HAVING INHIBITORY ACTIVITY ON PI3K” (SHIONOGI & CO., LTD., priority 2008, published 2011):

Biological target: PI-3 kinase γ (Homo sapiens, UniProt P48736)
Experiment: PI3Kγ inhibitory activity, PI3-kinase HTRF assay (Millipore)
Type: biochemical
Settings: 0.5 h; compound 50 μM; read-out: Inhibition ratio % (50 μM)
Protocol: (Method) The PI3Kγ inhibitory activity of a compound was evaluated using PI3-kinase HTRF™ assay (Millipore) according to the following procedure.
To each well of a testing plate was added 5 μL of a compound solution comprising 10% DMSO (200 μM as the concentration of the compound), 5 μL of 40 μM phosphatidylinositol (4,5)-bisphosphate/20 mM MgCl2/10 mM DTT, and 5 μL of 80 μg/mL PI-3 kinase γ/10 mM MgCl2/5 mM DTT, and then stood for 10 minutes.
Then, 5 μL of 40 μM ATP/10 mM MgCl2/5 mM DTT was added thereto. After reacting for 30 minutes at room temperature, 5 μL of a solution comprising EDTA and biotinylated phosphatidylinositol (3,4,5)-triphosphate was added to quench the reaction.
5 μL of a detection reagent comprising a europium-labeled anti-GST antibody, the GST-tagged PH domain, and allophycocyanin-labeled streptavidin was added thereto. After 18 hours, HTRF (excitation wavelength: 330 nm, measuring wavelengths: 620 nm and 665 nm) was measured.
A value of dividing an amount of fluorescence obtained at the measuring wavelength 665 nm by an amount of fluorescence obtained at 620 nm was defined as an HTRF ratio. The HTRF ratio in the absence of a compound was defined as 100% activity, and the HTRF ratio in the absence of PI-3 kinase γ was defined as 0% activity to calculate an inhibition ratio.

PI-3 kinase γ, sequence (P48736 whole entry): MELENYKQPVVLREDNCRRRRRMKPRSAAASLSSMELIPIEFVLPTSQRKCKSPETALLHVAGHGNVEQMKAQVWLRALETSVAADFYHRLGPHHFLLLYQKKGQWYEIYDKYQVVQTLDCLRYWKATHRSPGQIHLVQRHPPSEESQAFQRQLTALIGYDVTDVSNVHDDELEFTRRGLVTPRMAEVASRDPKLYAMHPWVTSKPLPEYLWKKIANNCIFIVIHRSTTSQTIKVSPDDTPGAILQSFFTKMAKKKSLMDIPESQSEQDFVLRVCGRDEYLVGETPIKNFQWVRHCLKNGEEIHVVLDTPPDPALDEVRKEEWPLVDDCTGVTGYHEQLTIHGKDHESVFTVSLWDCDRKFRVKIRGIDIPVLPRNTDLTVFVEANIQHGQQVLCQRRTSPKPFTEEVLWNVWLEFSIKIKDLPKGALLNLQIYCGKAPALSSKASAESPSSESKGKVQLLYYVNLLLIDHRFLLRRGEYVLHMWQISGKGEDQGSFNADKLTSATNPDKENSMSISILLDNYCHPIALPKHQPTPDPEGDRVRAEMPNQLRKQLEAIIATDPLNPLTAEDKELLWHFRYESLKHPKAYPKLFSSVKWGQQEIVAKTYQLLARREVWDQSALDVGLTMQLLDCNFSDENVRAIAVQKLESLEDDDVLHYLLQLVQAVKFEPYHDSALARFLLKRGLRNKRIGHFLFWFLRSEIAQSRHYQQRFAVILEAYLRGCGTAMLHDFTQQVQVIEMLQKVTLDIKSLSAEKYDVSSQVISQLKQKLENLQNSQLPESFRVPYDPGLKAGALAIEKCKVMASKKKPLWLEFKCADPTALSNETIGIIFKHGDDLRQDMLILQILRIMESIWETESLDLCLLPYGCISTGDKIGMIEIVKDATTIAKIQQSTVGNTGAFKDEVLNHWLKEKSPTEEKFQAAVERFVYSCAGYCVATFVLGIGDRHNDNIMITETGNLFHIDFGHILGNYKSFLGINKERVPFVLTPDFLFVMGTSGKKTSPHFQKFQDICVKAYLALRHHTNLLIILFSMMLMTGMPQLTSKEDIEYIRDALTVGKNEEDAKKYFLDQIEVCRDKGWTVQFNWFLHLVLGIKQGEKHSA

Question: CNC(=O)Nc1cn2nc(Cl)ccc2n1 [Compound I-1] was tested. Which inhibition at 50 µM did it give?
Answer: 72%

Question: How did the inhibition at 50 µM turn out when CNC(=O)Nc1cn2nc(NC(=O)C3CCCC3)ccc2n1 [Compound I-4] was run?
Answer: 57%

Question: CNC(=O)Nc1cn2nc(NC(=O)Nc3ccccc3)ccc2n1 [Compound I-5] was tested. Which inhibition at 50 µM did it give?
Answer: 60%

Question: Which inhibition at 50 µM does the source give for CNC(=O)Nc1cn2nc(N3CCCC3=O)ccc2n1 [Compound I-6] here?
Answer: 67%

Question: With CNC(=O)Nc1cn2nc(Nc3ccccc3)ccc2n1 [Compound I-7] as the molecule, how does the inhibition at 50 µM read?
Answer: 77%

Question: With CNC(=O)Nc1cn2nc(-c3ccccc3)ccc2n1 [Compound I-9] as the molecule, how does the inhibition at 50 µM read?
Answer: 82%

Question: Which inhibition at 50 µM does the source give for CCOC(=O)c1ccc2nc(NC(=O)NC)cn2n1 [Compound I-13] here?
Answer: 87%

Question: For CNC(=O)Nc1cn2nc(C(=O)NCc3ccccc3)ccc2n1 [Compound I-15], which inhibition at 50 µM is on record?
Answer: 74%

Question: How did the inhibition at 50 µM turn out when CNC(=O)Nc1cn2nc(C(=O)c3cccc(OC)c3)ccc2n1 [Compound I-17] was run?
Answer: 76%

Question: Which inhibition at 50 µM does the source give for CNC(=O)Nc1cn2nc(Sc3ccccc3)ccc2n1 [Compound I-18] here?
Answer: 81%

Question: For CNC(=O)Nc1cn2nc(Oc3ccccc3)ccc2n1 [Compound I-19], which inhibition at 50 µM is on record?
Answer: 65%

Question: How did the inhibition at 50 µM turn out when CNC(=O)Nc1cn2nc(Cc3ccccc3)ccc2n1 [Compound I-20] was run?
Answer: 62%

Question: Which inhibition at 50 µM does the source give for CNC(=O)Nc1cn2nc(COc3cccc(OC)c3)ccc2n1 [Compound I-22] here?
Answer: 56%

Question: Which inhibition at 50 µM does the source give for COc1cccc(-c2ccc3nc(Nc4ccccc4)cn3n2)c1 [Compound I-27] here?
Answer: 69%

Question: For CNC(=O)Nc1cn2nc(C(=O)N3CCC(C(=O)O)CC3)ccc2n1 [Compound I-32], which inhibition at 50 µM is on record?
Answer: 70%

Question: With CNC(=O)Nc1cn2nc(C(=O)Nc3cccc(C(=O)O)c3)ccc2n1 [Compound I-33] as the molecule, how does the inhibition at 50 µM read?
Answer: 57%

Question: With CNC(=O)Nc1cn2nc(-c3cccc(C(=O)OC)c3)ccc2n1 [Compound I-35] as the molecule, how does the inhibition at 50 µM read?
Answer: 77%

Question: CNC(=O)Nc1cn2nc(-c3cccc(OC)c3)ccc2n1 [Compound I-36] was tested. Which inhibition at 50 µM did it give?
Answer: 90%

Question: With CNC(=O)Nc1cn2nc(-c3ccsc3)ccc2n1 [Compound I-38] as the molecule, how does the inhibition at 50 µM read?
Answer: 91%

Question: With CNC(=O)Nc1cn2nc(Nc3cccc(OC)c3)ccc2n1 [Compound I-39] as the molecule, how does the inhibition at 50 µM read?
Answer: 69%

Question: How did the inhibition at 50 µM turn out when CNC(=O)Nc1cn2nc(C(=O)Nc3ccc(O)cc3)ccc2n1 [Compound I-41] was run?
Answer: 83%

Question: How did the inhibition at 50 µM turn out when CNC(=O)Nc1cn2nc(C(=O)Nc3ccccc3)ccc2n1 [Compound I-43] was run?
Answer: 79%

Question: How did the inhibition at 50 µM turn out when CNC(=O)Nc1cn2nc(C(=O)NCc3ccc(OC)cc3)ccc2n1 [Compound I-44] was run?
Answer: 57%

Question: How did the inhibition at 50 µM turn out when CNC(=O)Nc1cn2nc(C(=O)Nc3ccc4[nH]ccc4c3)ccc2n1 [Compound I-45] was run?
Answer: 74%

Question: How did the inhibition at 50 µM turn out when CNC(=O)Nc1cn2nc(C(=O)Nc3ccc(Cl)cc3)ccc2n1 [Compound I-46] was run?
Answer: 76%

Question: Which inhibition at 50 µM does the source give for CCCNC(=O)c1ccc2nc(NC(=O)NC)cn2n1 [Compound I-48] here?
Answer: 83%

Question: CNC(=O)Nc1cn2nc(C(=O)NCCOC)ccc2n1 [Compound I-49] was tested. Which inhibition at 50 µM did it give?
Answer: 64%

Question: How did the inhibition at 50 µM turn out when CNC(=O)Nc1cn2nc(C(=O)NC3CCCC3)ccc2n1 [Compound I-50] was run?
Answer: 89%

Question: With CNC(=O)Nc1cn2nc(C(=O)Nc3ccc(C(=O)O)cc3)ccc2n1 [Compound I-52] as the molecule, how does the inhibition at 50 µM read?
Answer: 80%

Question: CNC(=O)Nc1cn2nc(Nc3cccc(OCc4ccccc4)c3)ccc2n1 [Compound I-53] was tested. Which inhibition at 50 µM did it give?
Answer: 74%

Question: With CNC(=O)Nc1cn2nc(Nc3ccc(OC)cc3)ccc2n1 [Compound I-54] as the molecule, how does the inhibition at 50 µM read?
Answer: 85%

Question: Which inhibition at 50 µM does the source give for CNC(=O)Nc1cn2nc(-c3cccc(C(C)=O)c3)ccc2n1 [Compound I-55] here?
Answer: 85%

Question: Which inhibition at 50 µM does the source give for CNC(=O)Nc1cn2nc(-c3ccc(C(C)=O)cc3)ccc2n1 [Compound I-56] here?
Answer: 77%

Question: With CNC(=O)Nc1cn2nc(-c3cccc(N)c3)ccc2n1 [Compound I-57] as the molecule, how does the inhibition at 50 µM read?
Answer: 84%

Question: Which inhibition at 50 µM does the source give for CNC(=O)Nc1cn2nc(-c3cc4ccccc4s3)ccc2n1 [Compound I-58] here?
Answer: 70%

Question: With CNC(=O)Nc1cn2nc(-c3cccc(Cl)c3)ccc2n1 [Compound I-59] as the molecule, how does the inhibition at 50 µM read?
Answer: 52%

Question: How did the inhibition at 50 µM turn out when CNC(=O)Nc1cn2nc(-c3ccc(Cl)cc3)ccc2n1 [Compound I-60] was run?
Answer: 64%

Question: For CNC(=O)Nc1cn2nc(-c3ccc(OC)cc3)ccc2n1 [Compound I-63], which inhibition at 50 µM is on record?
Answer: 91%

Question: How did the inhibition at 50 µM turn out when CNC(=O)Nc1cn2nc(-c3cccc(C)c3)ccc2n1 [Compound I-65] was run?
Answer: 79%

Question: CNC(=O)Nc1cn2nc(-c3ccc(C)cc3)ccc2n1 [Compound I-66] was tested. Which inhibition at 50 µM did it give?
Answer: 77%

Question: With CNC(=O)Nc1cn2nc(-c3ccc(Cl)c(Cl)c3)ccc2n1 [Compound I-67] as the molecule, how does the inhibition at 50 µM read?
Answer: 72%

Question: With CNC(=O)Nc1cn2nc(-c3ccc(-c4ccccc4)cc3)ccc2n1 [Compound I-68] as the molecule, how does the inhibition at 50 µM read?
Answer: 90%

Question: How did the inhibition at 50 µM turn out when CNC(=O)Nc1cn2nc(-c3cccc(CO)c3)ccc2n1 [Compound I-69] was run?
Answer: 89%

Question: CNC(=O)Nc1cn2nc(/C=C/c3ccccc3)ccc2n1 [Compound I-70] was tested. Which inhibition at 50 µM did it give?
Answer: 78%

Question: How did the inhibition at 50 µM turn out when CNC(=O)Nc1cn2nc(-c3ccc(C#N)cc3)ccc2n1 [Compound I-71] was run?
Answer: 69%

Question: For CNC(=O)Nc1cn2nc(-c3ccc(S(C)(=O)=O)cc3)ccc2n1 [Compound I-72], which inhibition at 50 µM is on record?
Answer: 66%

Question: With CNC(=O)Nc1cn2nc(-c3ccc(NS(C)(=O)=O)cc3)ccc2n1 [Compound I-73] as the molecule, how does the inhibition at 50 µM read?
Answer: 70%

Question: With CNC(=O)Nc1cn2nc(-c3cccc(NS(C)(=O)=O)c3)ccc2n1 [Compound I-74] as the molecule, how does the inhibition at 50 µM read?
Answer: 89%

Question: For CNC(=O)Nc1cn2nc(-c3ccoc3)ccc2n1 [Compound I-76], which inhibition at 50 µM is on record?
Answer: 72%

Question: For CNC(=O)Nc1cn2nc(-c3ccc(C(N)=O)cc3)ccc2n1 [Compound I-77], which inhibition at 50 µM is on record?
Answer: 64%

Question: With CNC(=O)Nc1cn2nc(C3=CCCC3)ccc2n1 [Compound I-79] as the molecule, how does the inhibition at 50 µM read?
Answer: 81%

Question: How did the inhibition at 50 µM turn out when CNC(=O)Nc1cn2nc(-c3ccc(NC(=O)OC)cc3)ccc2n1 [Compound I-80] was run?
Answer: 57%

Question: CNC(=O)Nc1cn2nc(-c3cccc(C(=O)N(C)C)c3)ccc2n1 [Compound I-82] was tested. Which inhibition at 50 µM did it give?
Answer: 79%

Question: CNC(=O)Nc1cn2nc(Nc3cccc(O)c3)ccc2n1 [Compound I-85] was tested. Which inhibition at 50 µM did it give?
Answer: 111%

Question: For CNC(=O)Nc1cn2nc(C(=O)Nc3ccccc3OCCN)ccc2n1 [Compound I-98], which inhibition at 50 µM is on record?
Answer: 72%

Question: For CNC(=O)Nc1cn2nc(NC(C)=O)ccc2n1 [Compound I-101], which inhibition at 50 µM is on record?
Answer: 59%

Question: Which inhibition at 50 µM does the source give for CNC(=O)Nc1cn2nc(NC(=O)c3cccc(Cl)c3)ccc2n1 [Compound I-103] here?
Answer: 60%

Question: With CNC(=O)Nc1cn2nc(NC(=O)c3ccccc3)ccc2n1 [Compound I-104] as the molecule, how does the inhibition at 50 µM read?
Answer: 55%

Question: For CNC(=O)Nc1cn2nc(Nc3cccc(C(=O)OC)c3)ccc2n1 [Compound I-105], which inhibition at 50 µM is on record?
Answer: 73%

Question: With COc1cccc(-c2ccc3nc(NC(=O)NCCc4ccccc4)cn3n2)c1 [Compound I-107] as the molecule, how does the inhibition at 50 µM read?
Answer: 74%

Question: For COc1cccc(-c2ccc3nc(NC(=O)Nc4cccs4)cn3n2)c1 [Compound I-108], which inhibition at 50 µM is on record?
Answer: 89%

Question: COc1cccc(-c2ccc3nc(NC(=O)NC4CCCCC4)cn3n2)c1 [Compound I-109] was tested. Which inhibition at 50 µM did it give?
Answer: 99%

Question: CCCNC(=O)Nc1cn2nc(-c3cccc(OC)c3)ccc2n1 [Compound I-110] was tested. Which inhibition at 50 µM did it give?
Answer: 81%

Question: Which inhibition at 50 µM does the source give for COc1cccc(-c2ccc3nc(NC(=O)Nc4ccsc4)cn3n2)c1 [Compound I-111] here?
Answer: 55%

Question: Which inhibition at 50 µM does the source give for CCOC(=O)CNC(=O)Nc1cn2nc(-c3cccc(OC)c3)ccc2n1 [Compound I-112] here?
Answer: 84%

Question: Which inhibition at 50 µM does the source give for COc1cccc(-c2ccc3nc(NC(=O)NC(C)C)cn3n2)c1 [Compound I-113] here?
Answer: 86%
